In ChEMBL document CHEMBL1201862, “PubChem BioAssay data set” (2004):
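Exposure lasted 48 hours, with cells grown in 96-well plates and compounds tested at five concentrations. GI50 marks 50% less growth.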 Activity calls are given as the source filed them. Cut-off read from the data, not from the text of the source: active = GI50 up to about 1.1 µM and inactive = higher. Peptide text beside a SMILES is read from it. * marks the point of attachment. Boc = CC(C)(C)OC(=O)*

Legend:
Assay in all cases: NCI-60 cell line screen, 48 h
786-0 = test system: 786-0
ACHN = test system: ACHN
HL-60 = test system: HL-60
HOP-62 = test system: HOP-62
HOP-92 = test system: HOP-92
IGROV-1 = test system: IGROV-1
K562 = test system: K562
M14 = test system: M14
MCF7 = test system: MCF7
MOLT-4 = test system: MOLT-4
Malme-3M = test system: Malme-3M
NCI-H460 = test system: NCI-H460
SF-539 = test system: SF-539
SNB-75 = test system: SNB-75
SR = test system: SR
UACC-62 = test system: UACC-62
UO-31 = test system: UO-31
NCI-H522 = test system: NCI-H522
RXF 393 = test system: RXF 393

Structure (SMILES): N#C[C@@]12CCCC(=O)[C@@H]1[C@H]1CCC[C@H]12
- GI50 (786-0): 14.7 µM (inactive)
- GI50 (ACHN): 17.7 µM (inactive)
- GI50 (HL-60): 8.22 µM (inactive)
- GI50 (HOP-62): 15.2 µM (inactive)
- GI50 (HOP-92): 11.5 µM (inactive)
- GI50 (IGROV-1): 16.5 µM (inactive)
- GI50 (K562): 17.7 µM (inactive)
- GI50 (M14): 12.9 µM (inactive)
- GI50 (MCF7): 16.4 µM (inactive)
- GI50 (MOLT-4): 21.2 µM (inactive)
- GI50 (Malme-3M): 13.6 µM (inactive)
- GI50 (NCI-H460): 16.6 µM (inactive)
- GI50 (SF-539): 23.7 µM (inactive)
- GI50 (SNB-75): 13.7 µM (inactive)
- GI50 (SR): 26.1 µM (inactive)
- GI50 (UACC-62): 22.6 µM (inactive)
- GI50 (UO-31): 16.1 µM (inactive)

Structure (SMILES): CNC(=O)C1CCCN1C(=O)C(Cc1c[nH]cn1)NC(=O)C1CCC(=O)N1 (stereo not drawn)
- GI50 (786-0): 85.5 µM (inactive)
- GI50 (ACHN): > 100 µM (inactive)
- GI50 (HL-60): > 100 µM (inactive)
- GI50 (HOP-62): > 100 µM (inactive)
- GI50 (HOP-92): > 100 µM (inactive)
- GI50 (IGROV-1): > 100 µM (inactive)
- GI50 (K562): > 100 µM (inactive)
- GI50 (M14): > 100 µM (inactive)
- GI50 (MCF7): > 100 µM (inactive)
- GI50 (MOLT-4): > 100 µM (inactive)
- GI50 (Malme-3M): > 100 µM (inactive)
- GI50 (NCI-H460): > 100 µM (inactive)
- GI50 (NCI-H522): > 100 µM (inactive)
- GI50 (RXF 393): > 100 µM (inactive)
- GI50 (SNB-75): > 100 µM (inactive)
- GI50 (SR): > 100 µM (inactive)
- GI50 (UACC-62): > 100 µM (inactive)
- GI50 (UO-31): > 100 µM (inactive)

Structure (SMILES): COc1ccc(C2OC(=O)c3c2ccc2ccccc32)c(C)c1 (stereo not drawn)
- GI50 (786-0): 3.33 µM (inactive)
- GI50 (ACHN): 5.93 µM (inactive)
- GI50 (HL-60): 2.33 µM (inactive)
- GI50 (HOP-62): 3.48 µM (inactive)
- GI50 (HOP-92): 8.04 µM (inactive)
- GI50 (IGROV-1): 4.79 µM (inactive)
- GI50 (K562): 0.697 µM (active)
- GI50 (M14): 1.32 µM (inactive)
- GI50 (MCF7): 3.45 µM (inactive)
- GI50 (MOLT-4): 2.73 µM (inactive)
- GI50 (Malme-3M): 1 µM (active)
- GI50 (NCI-H460): 3.3 µM (inactive)
- GI50 (RXF 393): 2.69 µM (inactive)
- GI50 (SNB-75): 2.93 µM (inactive)
- GI50 (SR): 2.42 µM (inactive)
- GI50 (UACC-62): 7.19 µM (inactive)
- GI50 (UO-31): 5.4 µM (inactive)

Structure (SMILES): O=C1N(c2ccccc2)C2(c3ccccc3)CC3CCCC13S2 (stereo not drawn)
- GI50 (786-0): 78.9 µM (inactive)
- GI50 (ACHN): > 100 µM (inactive)
- GI50 (HL-60): 26.2 µM (inactive)
- GI50 (HOP-62): > 100 µM (inactive)
- GI50 (HOP-92): 67.5 µM (inactive)
- GI50 (IGROV-1): 78 µM (inactive)
- GI50 (K562): 38.7 µM (inactive)
- GI50 (M14): > 100 µM (inactive)
- GI50 (MCF7): 42.1 µM (inactive)
- GI50 (MOLT-4): 24.2 µM (inactive)
- GI50 (Malme-3M): 40.9 µM (inactive)
- GI50 (NCI-H522): 23.7 µM (inactive)
- GI50 (RXF 393): > 100 µM (inactive)
- GI50 (SF-539): > 100 µM (inactive)
- GI50 (SR): 26.4 µM (inactive)
- GI50 (UACC-62): 77.8 µM (inactive)
- GI50 (UO-31): 78.9 µM (inactive)

Structure (SMILES): O=C(NO)c1ccc(OCc2ccccc2)cc1
- GI50 (786-0): 16.9 µM (inactive)
- GI50 (ACHN): 22.3 µM (inactive)
- GI50 (HL-60): 16 µM (inactive)
- GI50 (HOP-62): 35.1 µM (inactive)
- GI50 (HOP-92): 33.5 µM (inactive)
- GI50 (IGROV-1): 14.3 µM (inactive)
- GI50 (K562): 37.7 µM (inactive)
- GI50 (M14): 47.6 µM (inactive)
- GI50 (MCF7): 55.8 µM (inactive)
- GI50 (MOLT-4): 15.3 µM (inactive)
- GI50 (NCI-H460): 19.5 µM (inactive)
- GI50 (NCI-H522): 9.62 µM (inactive)
- GI50 (RXF 393): 26.7 µM (inactive)
- GI50 (SF-539): 28.7 µM (inactive)
- GI50 (SNB-75): 29.4 µM (inactive)
- GI50 (SR): 14.1 µM (inactive)
- GI50 (UACC-62): 14.9 µM (inactive)
- GI50 (UO-31): 22.2 µM (inactive)

Structure (SMILES): CN(C)c1c(C2CC(O)C(CO)O2)c(=O)c1=O (stereo not drawn)
- GI50 (786-0): > 100 µM (inactive)
- GI50 (ACHN): > 100 µM (inactive)
- GI50 (HL-60): > 100 µM (inactive)
- GI50 (HOP-62): > 100 µM (inactive)
- GI50 (HOP-92): > 100 µM (inactive)
- GI50 (IGROV-1): > 100 µM (inactive)
- GI50 (K562): > 100 µM (inactive)
- GI50 (M14): > 100 µM (inactive)
- GI50 (MCF7): > 100 µM (inactive)
- GI50 (MOLT-4): > 100 µM (inactive)
- GI50 (NCI-H460): > 100 µM (inactive)
- GI50 (NCI-H522): > 100 µM (inactive)
- GI50 (SF-539): > 100 µM (inactive)
- GI50 (SNB-75): > 100 µM (inactive)
- GI50 (SR): > 100 µM (inactive)
- GI50 (UACC-62): > 100 µM (inactive)
- GI50 (UO-31): > 100 µM (inactive)

Structure (SMILES): COc1cc(OCc2nc3cc(C(F)(F)F)ccc3nc2-c2ccccc2)cc(OC)c1OC
- GI50 (786-0): 96.2 µM (inactive)
- GI50 (ACHN): > 100 µM (inactive)
- GI50 (HL-60): > 100 µM (inactive)
- GI50 (HOP-92): > 100 µM (inactive)
- GI50 (IGROV-1): > 100 µM (inactive)
- GI50 (K562): 61.9 µM (inactive)
- GI50 (M14): 45.4 µM (inactive)
- GI50 (MCF7): 56.4 µM (inactive)
- GI50 (MOLT-4): 8.75 µM (inactive)
- GI50 (Malme-3M): > 100 µM (inactive)
- GI50 (NCI-H460): > 100 µM (inactive)
- GI50 (RXF 393): 19.5 µM (inactive)
- GI50 (SF-539): 45.8 µM (inactive)
- GI50 (SNB-75): 98.9 µM (inactive)
- GI50 (SR): 81.5 µM (inactive)
- GI50 (UACC-62): 61.4 µM (inactive)
- GI50 (UO-31): > 100 µM (inactive)

Structure (SMILES): CSCCC(NC(=O)C(CC(C)C)NC(=O)CNC(=O)OC(C)(C)C)C(=O)N(C)C (stereo not drawn) (Boc-Gly-Leu-Met-NMe2; configuration not given here)
- GI50 (786-0): > 100 µM (inactive)
- GI50 (ACHN): > 100 µM (inactive)
- GI50 (HL-60): > 100 µM (inactive)
- GI50 (HOP-92): > 100 µM (inactive)
- GI50 (IGROV-1): > 100 µM (inactive)
- GI50 (K562): > 100 µM (inactive)
- GI50 (M14): > 100 µM (inactive)
- GI50 (MCF7): > 100 µM (inactive)
- GI50 (MOLT-4): > 100 µM (inactive)
- GI50 (Malme-3M): 87.7 µM (inactive)
- GI50 (NCI-H522): > 100 µM (inactive)
- GI50 (RXF 393): > 100 µM (inactive)
- GI50 (SF-539): > 100 µM (inactive)
- GI50 (SNB-75): 0.0272 µM (active)
- GI50 (SR): > 100 µM (inactive)
- GI50 (UACC-62): > 100 µM (inactive)
- GI50 (UO-31): > 100 µM (inactive)
